“And” between values parts separate entries of the source, which are not always exact repeats. Equal entries are not always repeated. “Also recorded” adds a separate entry of the source.
Experiments:
[1] = test system: mice; conditions: mouse, in vivo
Method: Post-stroke administration of Closantel in mice reduced ischemic cerebral infarction size and brain swelling in a dose-dependent manner. However, we detected Closantel toxicity in mice at higher doses (~25 mg/kg), consistent with reported adverse effects in humans, including weakness, visual impairment, and blindness[72],[73]. The in vitro nanomolar-potency pan-WNK-kinase inhibitor WNK463 was developed as an antihypertensive drug[74]. […] Although the causes of these adverse effects remain unclear, they also discouraged efficacy testing of WNK463 at higher doses.

[2] = test system: mouse model of ischemic stroke (tMCAO); assay: Infarct volume and hemispheric swelling (TTC) 24 h after tMCAO; type: in vivo; conditions: for Infarct volume (mm3) / Hemisphere swelling (%): individual mice
[3] = test system: T1, SPAK–WNK1 interaction; assay: SPAK antibody pull-down / co-immunoprecipitation of WNK1 from HEK-293 cell lysates; type: binding, human; conditions: Fig S6
T1 construct: endogenous in cells; host or cells: HEK-293
Method: Supplemental Fig. 6 Evidence that SPAK associates with WNK1, and interaction is disrupted by ZT-1a and its analogs. Non-transfected HEK293 cell lysates were incubated with the RFQV peptide […]
ZT-1a for 30 min on ice and subjected to SPAK antibody immunoprecipitation. Immunoprecipitates were subjected to immunoblot probed with antibody to total WNK1 and antibody to total SPAK. Left panels: representative immunoblots. Right panels, summarized data quantitated by densitometry (n=3, means ± SEM; **,

[4] = test system: NKCC1; assay: 86Rb+ uptake assay for NKCC1 activity in HEK-293 cells; type: cell-based; design: key to 86Rb+ uptake: 86Rb+ uptake in CPM per mg protein; conditions: for 86Rb+ uptake: Fig 3b, NKCC1 + Bum (0.1 mM), replicates, listed as Bum
Method: (§1) Thirty-six hours post transfection, cells were exposed for 30 min to either control isotonic conditions or hypotonic low [Cl^−] conditions (to activate the SPAK/OSR1 pathway), and then treated for an additional 30 min in the same conditions with the indicated ZT-1a concentrations in the presence of 1 mM ouabain and 0.1 mM bumetanide. Ten-minute ^86Rb^+ uptake values were quantified by scintillation counting, normalized per mg protein for each condition, and plotted for both isotonic and hypotonic conditions. ***p < 0.001; **p < 0.01; *p < 0.05; ns—nonsignificant [by one-way ANOVA with post hoc testing (n = 6, error bars represent the mean ± SEM)]. b ^86Rb^+ uptake assays in the presence of ZT-1a measure transport activity of NKCC1. […] Thirty-six hours post transfection, cells were exposed for 30 min to either control isotonic conditions or hypotonic low [Cl^−] conditions (to activate the SPAK/OSR1 pathway), and then treated in the same conditions for an additional 30 min with 10 µM ZT-1a or 0.1 mM bumetanide (Bum) in the presence of 1 mM ouabain (Na^+/K^+-ATPase inhibitor). ^86Rb^+ uptake was allowed to proceed for 10 min and was then quantified by scintillation counting. ^86Rb^+ uptake CPMs were normalized per mg protein and plotted for both isotonic and hypotonic conditions. […] Thirty-six hours post transfection, cells were exposed for 30 min to either control isotonic conditions or hypotonic low [Cl^−] conditions (to activate the SPAK/OSR1 pathway), and then treated for an additional 30 min in the same conditions with the indicated ZT-1a concentrations in the presence of 1 mM ouabain. Ten-minute ^86Rb^+ uptake values were quantified by scintillation counting, normalized per mg protein for each condition, and plotted for both isotonic and hypotonic conditions. ***p < 0.001; **p < 0.01; *p < 0.05; ns—nonsignificant [by one-way ANOVA with post hoc testing (n = 6, error bars represent the mean ± SEM)].
(§2) This stimulating medium was then removed and replaced with isotonic medium containing inhibitors plus 2 µCi/ml ^86Rb^+. After incubation for 10 min at 37 °C, cells were rapidly washed three times with the respective ice-cold nonradioactive medium. Washed cells were lysed in 300 µl of ice-cold lysis buffer and ^86Rb^+ uptake was quantitated by liquid scintillation counting (PerkinElmer).

[5] = test system: human fibroblast cells; assay: Cell volume measurement (calcein-AM) under hyperosmotic stress, human fibroblasts; conditions: hypertonic 515 mOsm; BMT or ZT-1a
[6] = test system: HEK-293 cells; assay: 86Rb+ uptake assay in empty-vector-transfected HEK-293 cells; type: cell-based, human; design: key: 86Rb+ uptake in CPM per mg protein; conditions: Fig 3b, Empty V + Bum (0.1 mM), ouabain, replicates, listed as Bum
Method: as §1, §2

[7] = test system: mouse primary cortical neurons; assay: Cell volume measurement (calcein-AM) under hyperosmotic stress, primary cortical neurons

Structure (SMILES): CC(C)(C)NC(=O)c1cncn1C1CCN(c2ccc(-c3nnc(C(F)(F)F)o3)cn2)CC1 [WNK463]
- adverse effects in mice [1]: ataxia and breathing difficulties
- Infarct volume (mm3) ([2]; Fig 9b, group WNK463): 59.9 mm3 and 47.6 mm3 and 101.01 mm3 and 100.21 mm3
- Hemisphere swelling (%) ([2]; Fig 9c, group WNK463): 22.63% and 14.43% and 26.7% and 16.53%
- infarct volume and hemispheric swelling (neuroprotection) ([2]; WNK463 2.5 mg/kg, 24 h post reperfusion, 2.5 mg/kg): reduced neither infarct volume nor hemispheric swelling; also recorded: not neuroprotective

Structure (SMILES): Cc1cc(C(C#N)c2ccc(Cl)cc2)c(Cl)cc1NC(=O)c1cc(I)cc(I)c1O (centres unmarked) [Closanel]
- WNK1 co-immunoprecipitated with SPAK (band quantification) ([3]; 10 uM): 0.416 and 0.33 and 0.3682 and 0.389
- WNK1 co-immunoprecipitated with SPAK (band quantification) ([3]; 30 uM): 0.353 and 0.208 and 0.256 and 0.231
- WNK1 co-immunoprecipitated with SPAK (band quantification) ([3]; 100 uM): 0.179 and 0.139 and 0.1611 and 0.153
- WNK1 co-immunoprecipitated with SPAK (band quantification) ([3]; 1000 uM): 0.036 and 0.031 and 0.0232 and 0.027

Structure (SMILES): CCCCNc1cc(C(=O)O)cc(S(N)(=O)=O)c1Oc1ccccc1 [bumetanide, reference compound]
- K+ flux of cells transfected with empty vector or NKCC1 wt cDNA ([4]; 0.1 mM bumetanide, isotonic or hypotonic low Cl−): significantly decreased K^+ flux
- 86Rb+ uptake ([4]; Hypotonic low Cl-): 9502.3 and 11310.4 and 9641.4 and 10421.5 and 10765.4 and 9047.7
- 86Rb+ uptake ([4]; Isotonic control): 1674.6 and 1506.3 and 1758.1 and 1840.4 and 1694.7 and 1729.5
- regulatory volume increase (RVI) in human fibroblast cells [5]: absence of RVI
- 86Rb+ uptake ([6]; Hypotonic low Cl-): 1107.6 and 1237.8 and 1137.4 and 1021.4 and 1200.9 and 1076.2
- 86Rb+ uptake ([6]; Isotonic control): 803.5 and 942.1 and 914.8 and 786.4 and 978.4 and 901.5
- Cell water (relative change) ([7]; Fig 5b trace, Time 1.00403): 0.9843 relative change
- Cell water (relative change) ([7]; Fig 5b trace, Time 2.00427): 1.007 relative change
- Cell water (relative change) ([7]; Fig 5b trace, Time 3.00425): 1.002 relative change
- Cell water (relative change) ([7]; Fig 5b trace, Time 4.00423): 1.004 relative change
- Cell water (relative change) ([7]; Fig 5b trace, Time 5.0042): 1.002 relative change
- Cell water (relative change) ([7]; Fig 5b trace, Time 6.00445): 0.7352 relative change
- Cell water (relative change) ([7]; Fig 5b trace, Time 7.00442): 0.6913 relative change
- Cell water (relative change) ([7]; Fig 5b trace, Time 8.00435): 0.6745 relative change
- Cell water (relative change) ([7]; Fig 5b trace, Time 9.00452): 0.6038 relative change
- Cell water (relative change) ([7]; Fig 5b trace, Time 10.0046): 0.5839 relative change
- Cell water (relative change) ([7]; Fig 5b trace, Time 11.0045): 0.5893 relative change
- Cell water (relative change) ([7]; Fig 5b trace, Time 12.0045): 0.5422 relative change
- Cell water (relative change) ([7]; Fig 5b trace, Time 13.0045): 0.523 relative change
- Cell water (relative change) ([7]; Fig 5b trace, Time 14.0045): 0.4977 relative change
- Cell water (relative change) ([7]; Fig 5b trace, Time 15.0047): 0.5231 relative change
- Cell water (relative change) ([7]; Fig 5b trace, Time 16.0047): 0.4947 relative change
- Cell water (relative change) ([7]; Fig 5b trace, Time 17.0047): 0.4924 relative change
- Cell water (relative change) ([7]; Fig 5b trace, Time 18.0047): 0.4545 relative change
- Cell water (relative change) ([7]; Fig 5b trace, Time 19.0049): 0.4799 relative change
- Cell water (relative change) ([7]; Fig 5b trace, Time 20.0049): 0.4586 relative change
- Cell water (relative change) ([7]; Fig 5b trace, Time 21.0048): 0.4488 relative change
- Cell water (relative change) ([7]; Fig 5b trace, Time 22.0048): 0.4846 relative change
- Cell water (relative change) ([7]; Fig 5b trace, Time 23.005): 0.4766 relative change
- Cell water (relative change) ([7]; Fig 5b trace, Time 24.0048): 0.4819 relative change
- Cell water (relative change) ([7]; Fig 5b trace, Time 25.005): 0.4751 relative change
- Cell water (relative change) ([7]; Fig 5b trace, Time 26.0053): 0.6008 relative change
- Cell water (relative change) ([7]; Fig 5b trace, Time 27.005): 0.6725 relative change
- Cell water (relative change) ([7]; Fig 5b trace, Time 28.005): 0.7341 relative change
- Cell water (relative change) ([7]; Fig 5b trace, Time 29.0051): 0.8379 relative change
- Cell water (relative change) ([7]; Fig 5b trace, Time 30.005): 0.9275 relative change
- Cell water (relative change) ([7]; Fig 5b trace, Time 31.005): 0.981 relative change
- Cell water (relative change) ([7]; Fig 5b trace, Time 32.005): 1.048 relative change
- Cell water (relative change) ([7]; Fig 5b trace, Time 33.0052): 1.114 relative change
- Cell water (relative change) ([7]; Fig 5b trace, Time 34.0052): 1.157 relative change
- Cell water (relative change) ([7]; Fig 5b trace, Time 35.0052): 1.203 relative change
- Cell water (relative change) ([7]; Time 1.0036): 0.9714
- Cell water (relative change) ([7]; Time 2.0038): 1.0042
- Cell water (relative change) ([7]; Time 3.0038): 1.0139
- Cell water (relative change) ([7]; Time 4.0037): 0.9906
- Cell water (relative change) ([7]; Time 5.0037): 1.0199
- Cell water (relative change) ([7]; Time 6.0037): 0.4476
- Cell water (relative change) ([7]; Time 7.0039): 0.4233
- Cell water (relative change) ([7]; Time 8.0040): 0.4625
- Cell water (relative change) ([7]; Time 9.0042): 0.4683
- Cell water (relative change) ([7]; Time 10.0039): 0.4401
- Cell water (relative change) ([7]; Time 11.0039): 0.4457
- Cell water (relative change) ([7]; Time 12.0039): 0.4507
- Cell water (relative change) ([7]; Time 13.0041): 0.4223
- Cell water (relative change) ([7]; Time 14.0041): 0.4334
- Cell water (relative change) ([7]; Time 15.0040): 0.4490
- Cell water (relative change) ([7]; Time 16.0040): 0.4184
- Cell water (relative change) ([7]; Time 17.0040): 0.3961
- Cell water (relative change) ([7]; Time 18.0045): 0.4241
- Cell water (relative change) ([7]; Time 19.0042): 0.4174
- Cell water (relative change) ([7]; Time 20.0042): 0.4139
- Cell water (relative change) ([7]; Time 21.0042): 0.4233
- Cell water (relative change) ([7]; Time 22.0041): 0.4177
- Cell water (relative change) ([7]; Time 23.0044): 0.4195
- Cell water (relative change) ([7]; Time 24.0044): 0.4281
- Cell water (relative change) ([7]; Time 25.0043): 0.4058
- Cell water (relative change) ([7]; Time 26.0043): 0.5463
- Cell water (relative change) ([7]; Time 27.0043): 0.6294
- Cell water (relative change) ([7]; Time 28.0045): 0.7254
- Cell water (relative change) ([7]; Time 29.0044): 0.8393
- Cell water (relative change) ([7]; Time 30.0044): 0.8966
- Cell water (relative change) ([7]; Time 31.0046): 1.0008
- Cell water (relative change) ([7]; Time 32.0046): 1.0678
- Cell water (relative change) ([7]; Time 33.0046): 1.1243
- Cell water (relative change) ([7]; Time 34.0045): 1.1834
- Cell water (relative change) ([7]; Time 35.0045): 1.2456
- regulatory volume increase (RVI) response of primary cortical neurons ([7]; hyperosmotic stress 370 mOsm, ZT-1a 3 μM, BMT 10 μM): no RVI response
- cell shrinkage of primary cortical neurons ([7]; hypertonic 370 mOsm/kg H2O, earlier manuscript version quoted in peer-review file): 86%
- initial rate of cell shrinkage ([7]; hypertonic stress, earlier manuscript version quoted in peer-review file): 45 ± 4 % vol/min
- neurons exhibiting RVI / cells analysed ([7]; hypertonicity-mediated osmotic shrinkage, three cultures): 0/46

Structure (SMILES): Cc1cc(C(C#N)c2ccc(Cl)cc2)c(Cl)cc1NC(=O)c1cc(Cl)ccc1O (centres unmarked) [ZT]
- Hemisphere swelling (%) ([2]; Fig 7b, group ZT 2.5): 11.06% and 15.88% and 13.11% and 15.27% and 16.5% and 21.75%
- Infarct volume (mm3) ([2]; Fig 7b, group ZT 2.5): 29.36 mm3 and 90.65 mm3 and 33.9 mm3 and 61.9 mm3 and 46.64 mm3 and 99.8 mm3
- Hemisphere swelling (%) ([2]; Fig 7b, group ZT 5.0): 16.2% and 16.76% and 19.99% and 9.25% and 8.47% and 7.57% and 9.24% and 4.63% and 10.39% and 8.48% and 13.8% and 7.91%
- Infarct volume (mm3) ([2]; Fig 7b, group ZT 5.0): 48.74 mm3 and 86.87 mm3 and 49.93 mm3 and 31.43 mm3 and 42.1 mm3 and 27.75 mm3 and 25.29 mm3 and 24.11 mm3 and 27.25 mm3 and 37.2 mm3 and 90 mm3 and 33.39 mm3

From publication PMC6946680, “Modulation of brain cation-Cl^− cotransport via the SPAK kinase inhibitor ZT-1a” (Nature Communications, 2020)
